# Reference: ChEMBL document CHEMBL3351866, “Indole alkaloid glycosides from the aerial parts of Strobilanthes cusia” (2014)
# The source made the active and inactive calls. The calls are words filed in the database; no cut-off is given here.
# System: Staphylococcus aureus
# Assay: Antibacterial activity against Staphylococcus aureus assessed as growth inhibition after 24 hrs by broth microdilution assay
# Assay type: functional
Structure (SMILES),MIC,Activity
O=C1/C(=C2/C(=O)N([C@@H]3O[C@H](CO)[C@@H](O)[C@H](O)[C@H]3O)c3ccccc32)Nc2ccccc21,62.5 µM,–
C[C@@H]1O[C@@H](O[C@@H]2[C@@H](O)[C@H](OCCc3ccc(O)c(O)c3)O[C@H](CO)[C@@H]2OC(=O)/C=C/c2ccc(O)c(O)c2)[C@H](O)[C@H](O)[C@H]1O,–,inactive
C[C@@H]1O[C@@H](O[C@@H]2[C@@H](O)[C@H](OCCc3ccc(O)c4c3[C@]3(Nc5ccccc5C3=O)[C@@]3(Nc5ccccc5C3=O)O4)O[C@H](CO)[C@H]2OC(=O)/C=C/c2ccc(O)c(O)c2)[C@H](O)[C@H](O)[C@H]1O,–,inactive
COc1ccc(CCO[C@@H]2O[C@H](CO)[C@@H](OC(=O)/C=C/c3ccc(O)c(OC)c3)[C@H](O[C@@H]3O[C@@H](C)[C@H](O)[C@@H](O)[C@H]3O)[C@H]2O)cc1O,–,inactive
COc1ccc(CCO[C@@H]2O[C@H](COC(=O)/C=C/c3ccc(O)c(OC)c3)[C@@H](O)[C@H](O[C@@H]3O[C@@H](C)[C@H](O)[C@@H](O)[C@H]3O)[C@H]2O)cc1O,–,inactive
COc1ccc(CCO[C@@H]2O[C@H](CO)[C@@H](OC(=O)/C=C/c3ccc(O)c(O)c3)[C@H](O[C@@H]3O[C@@H](C)[C@H](O)[C@@H](O)[C@H]3O)[C@H]2O)cc1O,–,inactive
COC(=O)c1ccccc1NC(=O)c1[nH]c2ccccc2c1O[C@@H]1O[C@H](CO)[C@@H](O)[C@H](O)[C@H]1O,–,inactive
C[C@@H]1O[C@@H](O[C@@H]2[C@@H](O)[C@H](OCCc3ccc(O)c(O)c3)O[C@H](CO)[C@H]2OC(=O)/C=C/c2ccc(O)c(O)c2)[C@H](O)[C@H](O)[C@H]1O,–,inactive
COC(=O)/C=C/c1[nH]c2ccccc2c1O[C@@H]1O[C@H](CO)[C@@H](O)[C@H](O)[C@H]1O,–,inactive
C[C@@H]1O[C@@H](O[C@@H]2[C@@H](O)[C@H](OCCc3ccc(O)c4c3[C@@]3(Nc5ccccc5C3=O)[C@]3(Nc5ccccc5C3=O)O4)O[C@H](CO)[C@H]2OC(=O)/C=C/c2ccc(O)c(O)c2)[C@H](O)[C@H](O)[C@H]1O,–,inactive
